Source: patent US7018839B2 (priority 1996, dated 2006)
No end group written: not given here.

Columns and labels:
[1] = test system: hippocampal cells in organotypic cultures; experiment: Organotypic hippocampal tissue culture toxicity (trypan blue, LDH, AChE immunocytochemistry); format: cell-based, rats; details: for cellular damage in hippocampal sections compared to control samples: semi-acute application for 1 hour, AChE-peptide and/or NMDA
Experimental: The organotype tissue culture technique requires postnatal (day 5–7) rats given terminal anaesthesia followed by decapitation. Sections of hippocampus, 400 μm thick, are prepared and then plated on a plasma/thrombin clot. A serum-based media is added to these cultures, which can then be maintained at constant temperature (35° C.) for up to 21 days. After each study, cultures are stained with trypan blue to assess cell viability, in addition, after every removal of serum media, cultures are assayed for lactate dehydrogenase (LDH—a soluble cytoplasmic enzyme used as an index of cellular damage).
Following chronic studies (cultures are maintained for 21 days and treated with AChE-peptide and/or NMDA every 3–4 days), cultured cells are immunocytochemically stained for acetylcholinesterase in order to assess what action, if any, the AChE-peptide has on cell number.

[2] = test system: neurons in the substantia nigra
[3] = test system: anti-peptide antibody; experiment: Competition assay for binding of antibody to immobilised AChE-peptide; parameters: species or system Rabbits; details: competitor preincubated with antibody in solution; APP and BuChE peptide at even excessive doses
Experimental: In order to be sure that the antibody recognition of peptides occurs without the possible distortion due to the binding of the peptide to a charged plastic surface, an assay was used in which the critical interaction is studied in solution. […] An aliquot of the antibody was preincubated with potential competitors for binding to the AChE-peptide before presenting the resulting mixture to the peptide bound to the well.

[4] = test system: substantia nigra; experiment: Behavioural studies: infusion into one substantia nigra, amphetamine challenge, circling; format: in vivo, rats; details: infused unilaterally into the substantia nigra
Experimental: In these experiments, rats were chronically implanted with a cannula in one substantia nigra and left to recover. After a period of about 3 days, they were infused with either a saline control solution, or a solution containing the 14-mer AChE peptide of the invention at a dose of 1 μl of 10^−5M. After a single infusion, they were challenged daily with a systemic application of amphetamine for the subsequent 10 days.

`CN[C@H](CC(=O)O)C(=O)O` [NMDA, N-methyl-D-aspartate, reference compound] was tested, and the “cellular damage in hippocampal sections compared to control samples” value [1] was “extensive cellular damage”.

In the case of AEFHRWSSYMVHWK [AChE peptide], the “LDH assays (biochemical studies)” value ([1]; chronic cultures, 21 days, treated every 3–4 days) is reported as “support the proposed toxic action”, the toxicity detected histochemically ([1]; culture period of three weeks) is reported as “Toxic effects are also detectable” and the “interaction with excito-toxic effects of NMDA” value ([1]; organotypic cultures) is reported as “synergistic”. The “time of application until effect can be seen” value ([1]; organotypic cultures) was “one”, the “toxic effects on hippocampal cells” value ([1]; organotypic cultures) was “direct toxic effects” and the “cellular damage in hippocampal sections compared to control samples” value [1] was “extensive cellular damage”. The “state of the cell on application of NMDA after peptide treatment” value [2] was “severe metabolic stress of the cell”.

With recombinant AChE the “competition for the binding of antibody to immobilised AChE-peptide” value [3] was “effective competitor”.

With AGFHRWNNYMMDWK [BuChE peptide] the “competition for the binding of antibody to immobilised AChE-peptide” value [3] was “could not compete”, the “calcium channel opening activity” value [2] was “inactive” and the “effect of the fragment alone on calcium potentials” value [2] was “without corresponding effect”. For the same compound, the “effect on the activity of the AChE fragment” value [2] was “inactive”.

acetylcholinesterase [AChE] was tested, and the “circling behaviour (activity of the nigrostriatal pathway)” value [4] was “long-term increase in circling behaviour”.
